According to patent publication US20230241257A1, “BIOTIN-MODIFIED DIMER AND USE THEREOF” (THE UNIVERSITY OF TOKYO, priority 2020, published 2023):

How the values were obtained:
[1] = test system: human stomach cancer cells (MKN-45); assay: Experiment 5: pharmacokinetics of Cupid-scFv antibody (24 h before)+^211At-psyche-BR in MKN-45 cancer-bearing mouse models; assay type: in vivo, mice (BALB/cSlc nu/nu)
Procedure: The present experiment used human stomach cancer cells (MKN-45) expressing carcinoembryonic antigen (CEA). 9-week-old male immunodeficient mice (BALB/cSlc nu/nu) were used. MKN-45 cells (1×10^7/0.1 ml) were transplanted into the mice's subcutis on the right shoulder dorsal side to produce cancer-bearing mouse models. The mice were divided into four groups when the tumor volume became a predetermined size (on Day 13 after the transplantation). The Cupid-scFv antibody was administered in 100 μmol/0.1 ml via the caudal vein of each mouse. Twenty-four hours after administration of the Cupid-scFv antibody, ^211At-psyche-BR (about 0.25 MBq/100 ml) was administered via the caudal vein of each mouse. One minute, 1 hour, 6 hours, and 24 hours after administration of the ^211At-psyche-BR, the mice were euthanized by collecting whole blood from the heart of each mouse under isoflurane anesthesia, and tumor tissues and normal tissues/organs were then excised. Normal tissues/organs: skin (lower right limb), muscle (right gastrocnemius muscle), heart, lung, spleen, pancreas, white fat (upper portion of right side testis), testis (both sides), stomach, stomach contents, small intestine (including contents), large intestine (including contents), liver, brown fat (interscapular), submandibular gland, thyroid gland (together with trachea), bone (right femur), cerebrum, eyeballs (both sides), bladder, and urine; the remaining residues were divided into three equal parts, and the three equal parts were defined to be residue-1, residue-2, and residue-3. After that, the weights of blood, plasma, urine, tumor, and normal tissues/organs were measured, and the radioactivity thereof was then measured using a γ counter. The amounts of the ^211At-psyche-BR (radioactivity) accumulated in the blood, plasma, urine, tumor, and normal tissues/organs were calculated. That is to say, the rates (% ID/g) of the ^211At-psyche-BR accumulated per unit weight (g) of the blood, plasma, urine, tumor, and normal tissues/organs, in the administered ^211At-psyche-BR were shown. Regarding accumulation of the ^211At-psyche-BR in the thyroid gland, since the weight of the thyroid gland could not be precisely measured, it was shown that the rate (% ID) of the ^211At-psyche-BR accumulated in the thyroid gland in the administered ^211At-psyche-BR.

[2] = test system: human stomach cancer cells (MKN-45); assay: Experiment 10: therapeutic effects and toxicity of Cupid-scFv antibody (24 h before)+^211At-psyche-B in MKN-45 cancer-bearing mouse models; assay type: in vivo, mice (BALB/cSlc nu/nu)
Procedure: The present experiment used human stomach cancer cells (MKN-45) expressing carcinoembryonic antigen (CEA). 9-week-old male immunodeficient mice (BALB/cSlc nu/nu) were used. MKN-45 cells (5×10^6/0.1 ml) were transplanted into the mice's subcutis on the right shoulder dorsal side to produce cancer-bearing mouse models. At the time point in which the tumor volume became a predetermined size (on Day 8 after the transplantation), the mice were divided into six groups, which were for use in the evaluation of the therapeutic effects, and a biodistribution group (6 hours) of cancer-bearing mouse models having this tumor size. The Cupid-scFv antibody was administered 100 μmol/0.1 ml via the caudal vein of each mouse. Twenty-four hours after administration of the Cupid-scFv antibody, ^211At-psyche-B was administered via the caudal vein of each mouse in an amount of 3.70 MBq, 1.85 MBq, 1.11 MBq, or 0.37 MBq.
In the present experiment, a 5.55 MBq administration group was not established. To a control group, a solvent for the ^211At-psyche-B was administered (solvent group). A group to which only cupid was administered was defined as a Cupid group. The mice's general states were observed and recorded immediately after administration of the ^211At-psyche-B and at 3 hours after the administration. Moreover, until Day 14, after administration of the ^211At-psyche-B, observation of the general states and the measurement of the body weight was carried out every day. After Day 14 of the administration of the […], observation of the general states and the measurement of the body weight was carried out every other day. The tumor size was measured every other day after the treatment with the ^211At-psyche-B. On Day 36, after the treatment with the ^211At-psyche-B, observation of the general states, the measurement of the body weight, and the measurement of the tumor size were carried out, and the mice were then euthanized by collecting whole blood from the heart of each mouse under isoflurane anesthesia. Tumor tissues and major tissues/organs were excised from the mice, weighed, and immobilized with formalin.

N=C1N[C@H]2[C@H](CS[C@H]2CCCCNC(=O)CCCCCC(=O)Nc2cc(NC(=O)CCCCCC(=O)NCCCC[C@@H]3SC[C@@H]4NC(=N)N[C@@H]43)cc(C(=O)NCCOCCOCCNC(=O)c3cccc([211At])c3)c2)N1 [^211At-psyche-BR]
Accumulation in the kidney ([1]; after 1 minute): 28.6±1.3 % ID/g | Accumulation in the liver ([1]; after 1 minute): 13.3±2.2 % ID/g | Accumulation in the lung ([1]; after 1 minute): 14.4±1.6 % ID/g | Accumulation in the spleen ([1]; after 1 minute): 4.7±0.4 % ID/g | Accumulation in the tumor ([1]; after 1 minute): 0.6±0.1 % ID/g | Clearance from the blood ([1]; after 1 minute): 46.9±1.1 % ID/g | tumor-to-blood ratio ([1]; after 1 minute): 0.01±0.00 | tumor-to-muscle ratio ([1]; after 1 minute): 1.22±0.05 | Accumulation in the kidney ([1]; after 1 hour): 17.1±1.4 % ID/g | Accumulation in the liver ([1]; after 1 hour): 11.4±0.7 % ID/g | Accumulation in the lung ([1]; after 1 hour): 13.2±2.2 % ID/g | Accumulation in the spleen ([1]; after 1 hour): 7.1±0.2 % ID/g | Accumulation in the tumor ([1]; after 1 hour): 3.1±0.7 % ID/g | Clearance from the blood ([1]; after 1 hour): 39.5±5.2 % ID/g | tumor-to-blood ratio ([1]; after 1 hour): 0.08±0.02 | tumor-to-muscle ratio ([1]; after 1 hour): 5.11±1.81 | Accumulation in the kidney ([1]; after 6 hours): 9.5±0.2 % ID/g | Accumulation in the liver ([1]; after 6 hours): 12.8±0.2 % ID/g | Accumulation in the lung ([1]; after 6 hours): 9.1±1.0 % ID/g | Accumulation in the spleen ([1]; after 6 hours): 8.4±1.0 % ID/g | Accumulation in the tumor ([1]; after 6 hours): 9.3±0.6 % ID/g | Clearance from the blood ([1]; after 6 hours): 25.3±1.0 % ID/g | tumor-to-blood ratio ([1]; after 6 hours): 0.7±0.02 | tumor-to-muscle ratio ([1]; after 6 hours): 12.80±1.86 | Accumulation in the thyroid gland ([1]; after 24 h): 0.15±0.05 % ID | Accumulation in the kidney ([1]; after 24 hours): 5.4±0.5% | Accumulation in the liver ([1]; after 24 hours): 7.8±0.9% | Accumulation in the lung ([1]; after 24 hours): 5.3±0.1% | Accumulation in the spleen ([1]; after 24 hours): 5.5±1.1% | Accumulation in the tumor ([1]; after 24 hours): 18.4±2.5% | Clearance from the blood ([1]; after 24 hours): 8.3±0.5 % ID/g | amount administered excreted (blood) ([1]; after 24 hours): about 92% | tumor-to-blood ratio ([1]; after 24 hours): 2.23±0.41 | tumor-to-muscle ratio ([1]; after 24 hours): 25.07±3.68

N=C1N[C@H]2[C@H](CS[C@H]2CCCCC(=O)NCCCCCC(=O)Nc2cc(NC(=O)CCCCCNC(=O)CCCC[C@@H]3SC[C@@H]4NC(=N)N[C@@H]43)cc(C(=O)NCCOCCOCCNC(=O)c3cccc([211At])c3)c2)N1 [^211At-psyche-B]
body weight reduction ([2]; 0.37 MBq, before Day 10): body weight reduction was lower than that in the 1.11 MBq | body weight reduction ([2]; 0.37 MBq, on and after Day 10): the body weight reduction was the same as in the 1.11 MBq | tumor growth compared with the control group ([2]; 0.37 MBq, until Day 10): tumor growth was suppressed | body weight recovery ([2]; 1.11 MBq, after Day 5): the body weight was not recovered to the same level as the control groups | body weight ([2]; 1.11 MBq, until Day 5): the body weight was slightly reduced | tumor growth compared with the control group ([2]; 1.11 MBq, until Day 10): tumor growth was suppressed | tumor growth compared with the control group ([2]; 1.85, 1.11 and 0.37 MBq, after Day 10): the tumor growth was suppressed in an amount-dependent manner | general states and body weight ([2]; 1.85 MBq, Day 5): general states and body weight reduction became significantly severe | mortality ([2]; 1.85 MBq, Day 10): one mouse died | recovery of general states ([2]; 1.85 MBq, Day 26): the mice were completely recovered | skin findings ([2]; 1.85 MBq, on and after Day 6 until Day 12): red spots were dispersed on the skin | tumor growth compared with the control group ([2]; 1.85 MBq, until Day 10): tumor growth was suppressed | general states and body weight ([2]; 3.70 MBq, Day 5, urgent euthanasia): general states and body weight reduction became severe
